“And” between values parts separate entries of the source, which are not always exact repeats. Equal values may be shown once. Read-outs that look alike come from different tables or passages of the source. Values belong to the compound of their own block, whether it stands above or below them.
Columns and labels:
[1] = target: T1, mineralcorticoid receptor (Homo sapiens, UniProt P08235); assay: MR antagonism, luciferase reporter cell line assay; format: cell-based; conditions: 16 hours incubation, luminescence
T1 sequence (P08235 1-984): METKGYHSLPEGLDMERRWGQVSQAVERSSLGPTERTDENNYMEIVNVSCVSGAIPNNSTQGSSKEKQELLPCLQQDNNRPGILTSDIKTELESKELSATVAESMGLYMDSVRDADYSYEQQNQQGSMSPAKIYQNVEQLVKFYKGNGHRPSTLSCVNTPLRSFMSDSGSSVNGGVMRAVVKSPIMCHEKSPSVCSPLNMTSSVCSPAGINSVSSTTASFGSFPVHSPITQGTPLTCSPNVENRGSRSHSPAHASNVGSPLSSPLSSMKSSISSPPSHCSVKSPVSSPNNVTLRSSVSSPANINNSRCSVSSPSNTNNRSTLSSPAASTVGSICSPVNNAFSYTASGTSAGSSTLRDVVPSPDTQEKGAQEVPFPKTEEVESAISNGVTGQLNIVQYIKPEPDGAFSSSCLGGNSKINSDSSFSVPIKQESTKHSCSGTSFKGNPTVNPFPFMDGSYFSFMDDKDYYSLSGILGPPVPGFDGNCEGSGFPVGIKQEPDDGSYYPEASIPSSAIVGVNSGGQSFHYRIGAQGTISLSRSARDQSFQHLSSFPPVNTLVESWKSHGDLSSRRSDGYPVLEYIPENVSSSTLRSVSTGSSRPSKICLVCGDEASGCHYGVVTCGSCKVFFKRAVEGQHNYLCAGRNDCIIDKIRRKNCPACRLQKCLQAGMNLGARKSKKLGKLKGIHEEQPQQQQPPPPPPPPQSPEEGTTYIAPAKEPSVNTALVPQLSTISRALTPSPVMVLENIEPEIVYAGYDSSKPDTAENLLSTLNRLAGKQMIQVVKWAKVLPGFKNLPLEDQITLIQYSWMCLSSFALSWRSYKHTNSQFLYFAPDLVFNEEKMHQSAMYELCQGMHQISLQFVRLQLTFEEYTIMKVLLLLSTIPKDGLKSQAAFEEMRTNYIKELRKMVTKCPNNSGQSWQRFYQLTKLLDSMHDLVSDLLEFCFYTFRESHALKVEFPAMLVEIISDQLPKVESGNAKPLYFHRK
Method: The derivatives according to the invention having the general chemical formula 1 have a very strong gestagenic activity. […] They should therefore have in vivo potassium-retaining, natriuretic (antimeralcorticoid) action. These properties were determined using the test described below:
For the culturing of the cells used for the assay, the culture medium used was DMEM (Dulbecco's Modified Eagle Medium: […] of glucose; PAA, #E15-009) with 10% FCS (Biochrom, S0115, batch #615B), 4 mM L-glutamine, 1% penicillin/streptomycin, 1 mg/ml of G418 and 0.5 μg/ml of puromycin.
Reporter cell lines were grown in a density of 4×10^4 cells per hollow in white, nontransparent tissue culture plates in each case having 96 hollows (PerkinElmer, #P12-106-017) and kept in 6% DCC—FCS (activated carbon-treated serum, for the removal of interfering components contained in the serum). The compounds to be investigated were added eight days later, and the cells were incubated with the compounds for 16 hours. The experiments were carried out in triplicate. At the end of the incubation, the effector-containing medium was removed and replaced by lysis buffer. After luciferase assay substrate (promega, #E1501) had been added, the plates containing the 96 hollows were then introduced into a microplate luminometer (Pherastar, BMG labtech), and the luminescence was measured. The IC50 values were evaluated using software for the calculation of dose-activity relationships.

[2] = target: T2, PR (Rattus norvegicus, UniProt Q63449); assay: maintenance of pregnancy test on the rat; format: in vivo; conditions: ovarectomized pregnant rats; for PR in vivo ED50: pregnancy-maintaining dose, s.c. once daily with oestrone 5 μg/kg/day
T2 construct: The maintenance of pregnancy test on ovarectomized rats serves for the determination of the peripheral gestagenic activity of a compound; from tissue; host or cells: whole animal: pregnant, ovariectomized rats
T2 sequence (Q63449 1-923): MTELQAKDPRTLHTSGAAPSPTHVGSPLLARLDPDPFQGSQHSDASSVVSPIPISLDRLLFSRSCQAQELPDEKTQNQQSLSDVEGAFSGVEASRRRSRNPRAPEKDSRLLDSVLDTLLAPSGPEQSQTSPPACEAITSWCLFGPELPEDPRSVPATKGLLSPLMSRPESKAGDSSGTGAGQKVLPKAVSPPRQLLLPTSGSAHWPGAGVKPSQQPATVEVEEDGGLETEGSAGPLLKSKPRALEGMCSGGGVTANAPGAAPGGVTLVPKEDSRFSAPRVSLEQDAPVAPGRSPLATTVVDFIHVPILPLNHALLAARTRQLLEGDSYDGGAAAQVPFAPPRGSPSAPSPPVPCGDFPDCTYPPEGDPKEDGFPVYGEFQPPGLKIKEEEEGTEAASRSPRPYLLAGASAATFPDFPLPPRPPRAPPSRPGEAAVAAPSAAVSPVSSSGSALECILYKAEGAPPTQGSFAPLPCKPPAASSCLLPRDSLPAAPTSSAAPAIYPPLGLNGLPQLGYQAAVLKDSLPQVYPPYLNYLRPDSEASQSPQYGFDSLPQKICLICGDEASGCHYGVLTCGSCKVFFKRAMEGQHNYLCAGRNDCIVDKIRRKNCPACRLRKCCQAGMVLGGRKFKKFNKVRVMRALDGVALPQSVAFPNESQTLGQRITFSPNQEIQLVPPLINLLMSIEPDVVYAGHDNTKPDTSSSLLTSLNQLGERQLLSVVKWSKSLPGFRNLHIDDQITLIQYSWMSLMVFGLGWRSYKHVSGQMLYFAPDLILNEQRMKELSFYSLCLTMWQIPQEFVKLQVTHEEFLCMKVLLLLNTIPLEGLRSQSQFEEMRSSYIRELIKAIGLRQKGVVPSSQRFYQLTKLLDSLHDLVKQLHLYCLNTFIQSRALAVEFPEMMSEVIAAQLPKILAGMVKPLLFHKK
Excerpt: Carrying out the maintenance of pregnancy test on the rat:
In pregnant rats, the removal of the corpora lutea or oophorectomy induces an abortion. By means of the exogenous administration of progestins (gestagens) in combination with a suitable dose of an oestrogen, the maintenance of pregnancy is possible. The maintenance of pregnancy test on ovarectomized rats serves for the determination of the peripheral gestagenic activity of a compound.
Rats were paired overnight during proestrus. Pairing was checked on the morning of the following day by the appraisal of a vaginal smear. The presence of the sperm was evaluated here as day 1 of a commencing pregnancy. On day 8 of the pregnancy, the animals were ovarectomized under ether anaesthesia. The treatment with test compound and exogenous oestrogen (oestrone, 5 μg/kg/day) was carried out subcutaneously once daily from day 8 to day 15 or day 21 of the pregnancy. The first administration on day 8 was carried out two hours before oophorectomy. Intact control animals were given exclusively vehicle.
At the end of the experiment (day 15 or day 21), the animals were sacrificed under a CO2 atmosphere, and live foetuses (foetuses having a beating heart) and implantation sites (early resorptions and dead foetuses including autolysis and atrophic placentas) were counted in both uterine horns. On day 22, it was moreover possible to examine foetuses for malformations. In uteri without foetuses or implantation sites, the number of nidation sites was determined by staining with 10% strength ammonium sulphide solution. The maintenance of pregnancy rate was calculated as the quotient of the number of living foetuses and the total number of nidation sites (both resorbed and dead foetuses and nidation sites). For drospirenone, this value is 3.5 mg/kg/day.

[3] = MR Antagonism IC50, reporter cell lines
[4] = reporter cell lines, read-out: MR Antagonism IC50

Compound: C[C@@H]1CC2=CC(=O)CC[C@@H]2[C@H]2CC[C@@]3(C)[C@@H]([C@@H]4C[C@@H]4[C@@H]3C#N)[C@@H]21 (single isomer, unassigned) [17β-Cyano-15β,16β-methylene-7α-methyl-19-nor-androst-4-en-3-one]
IC50 [1, 3]: 8.3 nM and 10.3 nM

Compound: CC[C@]1(C#N)[C@H]2C[C@H]2[C@H]2[C@@H]3[C@@H]4C[C@@H]4C4=CC(=O)CC[C@@H]4[C@H]3CC[C@@]21C (single isomer, unassigned) [17β-cyano-17α-ethyl-6α,7α-methylene-15β,16β-methylene-19-nor-androst-4-en-3-one]
IC50 [1, 3]: 90.2 nM | PR in vivo ED50 [2]: 0.22 mg/kg/d s.c.

Compound: C[C@@H]1CC2=CC(=O)CC[C@@H]2[C@H]2CC[C@@]3(C)[C@@H](CC[C@]3(C)C#N)[C@@H]21 [17β-Cyano-7α,17α-bismethyl-19-nor-androst-4-en-3-one]
IC50 [1, 3]: 31 nM | MR Antagonism activity [% of the maximum effect] ([1]; reporter cell lines): 96.20 % of the maximum effect | PR in vivo ED50 [2]: 1 .0 mg/kg/d s.c.

Compound: C[C@@H]1CC2=CC(=O)CC[C@@H]2[C@H]2CC[C@]3(C)[C@@H](C#N)CC[C@H]3[C@@H]21 [17β-Cyano-7α-methyl-19-nor-androst-4-en-3-one]
MR Antagonism activity [% of the maximum effect] ([1]; reporter cell lines): 108.02 % of the maximum effect | IC50 [1, 4]: 8.2 nM | PR in vivo ED50 [2]: 0.33 mg/kg/d s.c.

Compound: C[C@]12CC[C@H]3[C@@H](CCC4=CC(=O)CC[C@@H]43)[C@@H]1[C@H]1C[C@H]1[C@@H]2C#N [17β-Cyano-15α,16α-methylene-19-nor-androst-4-en-3-one]
MR Antagonism activity [% of the maximum effect] ([1]; reporter cell lines): 93.01 % of the maximum effect | IC50 [1, 4]: 16 nM | PR in vivo ED50 [2]: 0.8 mg/kg/d s.c.

Compound: C[C@]12CC[C@H]3[C@@H](CCC4=CC(=O)CC[C@@H]43)[C@@H]1[C@@H]1C[C@@H]1[C@@H]2C#N [17β-Cyano-15β,16β-methylene-19-nor-androst-4-en-3-one]
MR Antagonism activity [% of the maximum effect] ([1]; reporter cell lines): 95.57 % of the maximum effect | IC50 [1, 4]: 4.5 nM | PR in vivo ED50 [2]: 0.84 mg/kg/d s.c.

Compound: C[C@]12CC[C@H]3[C@@H](C=CC4=CC(=O)CC[C@@H]43)[C@@H]1[C@@H]1C[C@@H]1[C@@H]2C#N [17β-Cyano-15β,16β-methylene-19-nor-androsta-4,6-dien-3-one]
MR Antagonism activity [% of the maximum effect] ([1]; reporter cell lines): 108.51 % of the maximum effect | IC50 [1, 4]: 15 nM | PR in vivo ED50 [2]: 3.3 mg/kg/d s.c.

Compound: CC[C@]1(C#N)[C@H]2C[C@H]2[C@H]2[C@@H]3CCC4=CC(=O)CC[C@@H]4[C@H]3CC[C@@]21C [17β-Cyano-17α-ethyl-15β,16β-methylene-19-nor-androst-4-en-3-one]
MR Antagonism activity [% of the maximum effect] ([1]; reporter cell lines): 106.4 % of the maximum effect | IC50 [1, 4]: 440 nM | PR in vivo ED50 [2]: 1.9 mg/kg/d s.c.

Compound: C[C@]1(C#N)[C@H]2C[C@H]2[C@H]2[C@@H]3CCC4=CC(=O)CC[C@@H]4[C@H]3CC[C@@]21C [17β-Cyano-17α-methyl-15β,16β-methylene-19-nor-androst-4-en-3-one]
MR Antagonism activity [% of the maximum effect] ([1]; reporter cell lines): 96.00 % of the maximum effect | IC50 [1, 4]: 29 nM | PR in vivo ED50 [2]: 0.8 mg/kg/d s.c.

Compound: C[C@]1(C#N)[C@H]2C[C@H]2[C@H]2[C@@H]3C=CC4=CC(=O)CC[C@@H]4[C@H]3CC[C@@]21C [17β-Cyano-17α-methyl-15β,16β-methylene-19-nor-androsta-4,6-dien-3-one]
MR Antagonism activity [% of the maximum effect] ([1]; reporter cell lines): 114 % of the maximum effect | IC50 [1, 4]: 190 nM | PR in vivo ED50 [2]: 2.1 mg/kg/d s.c.

pregnancy-maintaining dose (ED50) ([2]; subcutaneously once daily with oestrone 5 μg/kg/day): 3.5 mg/kg/day
Compound: C[C@]12CCC(=O)C=C1[C@@H]1C[C@@H]1[C@H]1[C@@H]3[C@@H]4C[C@@H]4[C@@]4(CCC(=O)O4)[C@@]3(C)CC[C@@H]12 [drospirenone, 6β,7β-15β,16β-dimethylene-3-oxo-17-pregn-4-ene-21,17β-carbolactone, reference compound]
